# pKi: −log10 of the molar value. The source made the active and inactive calls. No cut-off for these calls is given here.
# Biological target: not listed separately
# Assay: (§1) Inhibition of Brugia malayi thymidylate kinase using dTMP substrate by spectrophotometric assay
row,pKi,Compound
1,4.67,CCCCCC(CC(=O)CCc1ccc(O)c(OC)c1)Nc1cc(C)ccn1 (centres undefined)
2,5.05,CCCCCC(CC(=O)CCc1ccc(O)c(OC)c1)n1cnc2c(N)ncnc21 (centres undefined)
3,4.39,CCCCCC(CC(=O)CCc1ccc(O)c(OC)c1)Nc1ccc(C)cn1 (centres undefined)
4,5.18,CCCCCC(CC(=O)CCc1ccc(O)c(OC)c1)n1cc(C)c(=O)[nH]c1=O (centres undefined)
5,4.96,CCCCCC(CC(=O)CCc1ccc(O)c(OC)c1)Nc1ncccc1C (centres undefined)
6,5.08,CCCCCC(CC(=O)CCc1ccc(O)c(OC)c1)n1cc(Br)c(=O)[nH]c1=O (centres undefined)

# More lines, now with the values behind:
row,Compound,pKi
1,CCCCC/C=C/C(=O)CCc1ccc(O)c(OC)c1 [SHOGAOL],4.97
2,CCCCCC(CC(=O)CCc1ccc(OC(=O)c2ccc(Cl)nc2)c(OC)c1)Nc1cc(C)ccn1 (centres undefined),4.52
3,CCCCCC(CC(=O)CCc1ccc(OC(=O)c2ccco2)c(OC)c1)n1cc(C)c(=O)n(C(=O)c2ccco2)c1=O (centres undefined),4.69
4,CCCCCC(CC(=O)CCc1ccc(OS(C)(=O)=O)c(OC)c1)n1cc(C)c(=O)[nH]c1=O (centres undefined),4.18
5,CCCCCC(CC(=O)CCc1ccc(OC(=O)c2ccc(OC)cc2)c(OC)c1)n1cc(C)c(=O)n(C(=O)c2ccc(OC)cc2)c1=O (centres undefined),4.70
6,CCCCCC(CC(=O)CCc1ccc(OC(=O)/C=C/c2ccc(F)cc2)c(OC)c1)n1cc(C)c(=O)[nH]c1=O (centres undefined),4.35
7,CCCCCC(CC(=O)CCc1ccc(OS(=O)(=O)c2ccc(C)cc2)c(OC)c1)n1cc(C)c(=O)[nH]c1=O (centres undefined),4.34

# Tested on: Brugia malayi
# Assay: as §1
row,inhibition,Compound
1,inactive,CCCCCC(CC(=O)CCc1ccc(OC(=O)c2ccc(Cl)nc2)c(OC)c1)n1cc(C)c(=O)[nH]c1=O (centres undefined)

# — ChEMBL document CHEMBL3414557, “Synthesis, molecular docking and Brugia malayi thymidylate kinase (BmTMK) enzyme inhibition study of novel derivatives of [6]-shogaol” (Eur J Med Chem, 2015)
